US11247994B2, “6-dithio-substituted-2′-deoxyguanosine compound, preparation method thereof and use thereof” (ZHEJIANG UNIVERSITY, priority 2018, dated 2022)
Read-outs that look alike come from different tables or passages of the source.

Experiments:
[1] = biological target: T1, TrxR/Trx-1 (Homo sapiens, UniProt P10599); test: Ellman test, inhibition of TrxR/Trx-1 activity; type: biochemical
T1 sequence (P10599 2-105 limits assumed): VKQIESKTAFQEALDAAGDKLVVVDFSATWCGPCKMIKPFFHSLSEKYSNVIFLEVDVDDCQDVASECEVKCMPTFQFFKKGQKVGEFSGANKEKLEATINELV
Excerpt: Ellman Test—Inhibitory Effect of 6-dithio-substituted-2′-deoxyguanosine Derivative Analogues on TrxR/Trx-1 Activity
A TrxR/TR experiment based on the Ellman reaction was used to determine the inhibitory activity of candidate compounds. Ellman reaction is that 5,5′-dithiobis (2-nitrobenzoic acid) (DTNB) reacts with sulfhydryl (—SH) to form a yellow substance with absorption at 412 nm. The increase of absorption can be equivalent to the decrease of NADPH mediated by TrxR, thus further judging the activity of TrxR/Trx-1. All experiments were carried out on 96-well plates. Before the start of the enzyme reaction, five groups of corresponding test compound stock solutions with different concentrations were prepared. In the TrxR/Trx-1 reaction, a total volume per well was 60 μL, including 100 mM HEPES, 5 mM EDTA (HE buffer, pH 7.5), 1 mM NADPH, 1.0 μM TrxR, 0.8 μM Trx-1, 2.5 mg/mL bovine insulin and the required concentration of compounds to be tested. No compound to be tested was added to the control group. No compound to be tested, TrxR and Trx-1 were added in the blank group. The plate was shaken on an oscillator for 30 seconds to fully mix the reactants. After incubation at 37° C. for 30 min, 100 μL of the prepared mixture containing 6 M guanidine hydrochloride, 50 mm Tris and 10 mm DTNB was added to terminate the reaction. After 15 minutes of incubation, the absorbance was measured at 412 nm. Finally, TrxR/Trx-1 activity %=(Atest−Akb)/(Acontrol−Akb), that is, the relative percentage of TrxR/Trx-1 activity was the activity inhibited by adding 2′-deoxyguanosine derivatives relative to the activity without 2′-deoxyguanosine derivatives. The data were fitted into a concentration response curve with a variable slope, and the IC50 value was calculated from the curve.

[2] = test system: NCM460; test: MTT assay, cell growth inhibition, NCM460; type: cell-based; settings: Homo sapiens, 48 hours, read-out: Tumor cell growth inhibition IC50, NCM460
Excerpt: (§1) MTT Assay—Inhibitory Effect of 6-dithio-substituted-2′-deoxyguanosine Derivatives on Tumor Cell Growth
(§2) We measured the tumor cell growth inhibitory activity of candidate compounds by MTT assay. Human tumor cells in logarithmic growth phase were digested with 0.25% pancreatin for a certain time, centrifuged, re-suspended and counted with a blood cell counting plate to prepare a cell suspension, and the cell suspension was adjusted to 1.0×10^4-1×10^5 cells/mL. The cell suspension was inoculated into a 96-well culture plate, 100 μL per well, and cultured in an incubator with saturated humidity, 37° C. and 5% CO2 for 24 hours until the cells completely adhered to the wall. The test compound was diluted to the required concentration with a complete medium, the complete medium of the 96-well culture plate inoculated with human tumor cells was sucked out, a medicament-containing medium was added, 100 μL per well, the final concentration of DMSO was less than 0.1%, and the culture plate was put in an incubator for 48 hours. 10 μl of MTT was added to each well of the 96-well plate, and the culture was continued for 4 h. The culture was stopped and the culture solution in the well was carefully sucked off. 150 μL DMSO was added to each well, and shaken at a low speed for 10 min on a shaking table, so that the crystal was fully dissolved. The absorbance of each well was measured at OD 570 nm of an enzyme-linked immunosorbent assay instrument. At the same time, zeroing wells (the culture medium, MTT, dimethyl sulfoxide) and control wells (cells, a drug dissolution medium with the same concentration, a culture solution, MTT, dimethyl sulfoxide) were set up, and the cell growth inhibitory activity was calculated with the corresponding solvents as the control. 3-6 multiple wells in each group were set up with repetition of several times. Cell viability of control=(Adrug group−Azeroing well)/(Acontrol well−Azeroing well)*100%. Drawing was drawn, the data were fitted into a concentration response curve with a variable slope, and IC50 value was calculated from the curve.

[3] = test system: human colon cancer cells HCT116; test: MTT assay, tumor cell growth inhibition, HCT116; type: cell-based; settings: HCT-116, 48 hours
Excerpt: as §1, §2

[4] = test system: human colon cancer cells SW620; test: MTT assay, tumor cell growth inhibition, SW620; type: cell-based; settings: SW-620, 48 hours
Excerpt: as §1, §2

[5] = test system: human colon cancer cells HT29; test: MTT assay, tumor cell growth inhibition, HT29; type: cell-based; settings: HT-29, 48 hours
Excerpt: as §1, §2

[6] = test system: human leukemia cells K562; test: MTT assay, tumor cell growth inhibition, K562; type: cell-based; settings: 48 hours
Excerpt: as §1, §2

[7] = test system: human breast cancer cells MCF7; test: MTT assay, tumor cell growth inhibition, MCF7; type: cell-based; settings: 48 hours
Excerpt: as §1, §2

[8] = test system: human breast cancer cells Bcap37; test: MTT assay, tumor cell growth inhibition, Bcap37; type: cell-based; settings: 48 hours
Excerpt: as §1, §2

[9] = test system: human melanoma cells A375; test: MTT assay, tumor cell growth inhibition, A375; type: cell-based; settings: A-375, 48 hours
Excerpt: as §1, §2

[10] = test system: human liver cancer cells HepG2; test: MTT assay, tumor cell growth inhibition, HepG2; type: cell-based; settings: 48 hours
Excerpt: as §1, §2

[11] = test system: human non-small cell lung cancer A549; test: MTT assay, tumor cell growth inhibition, A549; type: cell-based; settings: 48 hours
Excerpt: as §1, §2

[12] = test system: human colon cancer cell line HCT116 subcutaneous transplanted tumor; test: Tumor-bearing test in nude mice, HCT116 subcutaneous transplanted tumor (tumor volume, TUNEL); type: in vivo; settings: HCT116 model; for Extent of apoptosis in tumor tissue (TUNEL staining, rank order): frozen tumor sections, DAPI and TUNEL, G group = blank; for Inhibitory effect on the growth of subcutaneous transplanted tumor tissue in nude mice (rank order, from slope of tumor volume): compound A 2 mg/kg first 8 times, 10 mg/kg last 4 times, others equimolar, KB = blank
Excerpt: Tumor-Bearing Test in Nude Mice—Inhibitory Effect of 6-Dithio-Substituted-2′-Deoxyguanosine Derivatives on the Growth of Subcutaneous Transplanted Tumor Tissue in Nude Mice
1) Tumor-Bearing Mouse Model of Human Colon Cancer Cell Line HCT116
(§3) We took human colon cancer cell line HCT116 as the research object, and established a subcutaneous transplanted tumor model of human colon cancer in 32 immunodeficient nude mice. The 24th generation HCT116 cells in logarithmic growth phase were digested with pancreatin to prepare a single-cell suspension, and 1×10^7 cells were inoculated subcutaneously in the right armpit of male nude mice about 5 weeks old. After inoculation, cyclophosphamide (100 mg/kg) was injected intraperitoneally for two consecutive days. […] On the 20th day after colon cancer cell HCT116 was implanted subcutaneously, nude mice were divided into 7 groups by a random number table method, including a test drug group, a positive control group and a blank control group. Specifically, group A: the compound A was administrated; Group B: the compound B was administrated; Group C: the compound C was administrated; Group D: the compound D was administrated; Group E: the compound 6-thio-DG was administrated; Group F: the compound PX-12 was administrated; Group G: blank group, without administration of any compound. Except group C with 3 rats and group G with 4 rats, all other 5 groups had 5 rats, they mice were labeled and injected by tail vein once every two days for 24 days, 12 times, with the dose of compound A being 2 mg/kg for the first 8 times and 10 mg/kg for the last 4 times, and the dosages of other drugs being the same molar weights. The tumor volume was calculated by taking the length of the tumor as the longest diameter and the width as the corresponding vertical diameter, and the tumor volume V=(length×width^2) mm^3/2. 48 hours after the last treatment, blood was taken from the eyes, and then the animals were killed. Blood was centrifuged to get the supernatant, and then blood biochemical analysis was performed. Paraffin embedded sections of fixed tissues were stained with HE. The tumor mass in a frozen tissue was sectioned in a frozen state, and then stained by DAPI and TUNEL to judge the apoptosis of the tumor tissue in nude mice.

[13] = Blood biochemical analysis and HE staining of tissues in HCT116 tumor-bearing nude mice; type: in vivo; settings: tail vein once every two days, 12 times, blood 48 hours after the last treatment
Procedure: as §3

[14] = Ellman reaction, 37° C. 30 min, absorbance 412 nm, read-out: IC50, inhibition of TrxR/Trx-1 activity
[15] = tail vein once every two days for 24 days

Row | IC50 [1, 14] [µM] | IC50 [3] [µM] | IC50 [4] [µM] | IC50 [5] [µM] | IC50 [6] [µM] | IC50 [7] [µM] | IC50 [8] [µM] | IC50 [9] [µM] | IC50 [10] [µM] | IC50 [11] [µM] | Alanine aminotransferase [13] [U/L] | Albumin [13] [g/L] | Alkaline phosphatase [13] [U/L] | Aspartate aminotransferase [13] [U/L] | BUN [13] [mmol/L] | Chloride ion [13] [mmol/L] | Creatine kinase [13] [U/L] | SMILES | IC50 [2] [µM] | Extent of apoptosis in tumor tissue (TUNEL staining, rank order) [12] | Inhibitory effect on the growth of subcutaneous transplanted tumor tissue in nude mice (rank order, from slope of tumor volume) [12, 15] | further results
1 | > 100 | 28.4 | > 100 | 9.44 | 7.86 | > 100 | > 100 |  |  |  |  |  |  |  |  |  |  | Nc1nc(Cl)nc2c1ncn2[C@H]1C[C@H](O)[C@@H](CO)O1 [Cladribine, reference compound] | > 1000 |  |  | 
2 | 2.55 | 34.5 | 1.68 | 3.37 | 21.7 | > 100 | > 100 | 2.98 | 10 to 50 | 7.43 | 30.8 | 33.0 | 44.2 | 169.0 | 8.10 | 109.9 | 1434 | CCC(C)SSc1ncc[nH]1 (stereo not shown) [PX-12, 1-methylpropyl-2-imidazolyl disulfide, reference compound] | > 1000 | D group>A group≈B group≈E group (6-thio-dG group)>C group>F group (PX-12 group)>G group (KB group) | D>B≈A≈6-thio-dG>PX-12>C>KB | Creatinine [13]: 3.20 µmol/L; Glucose [13]: 1.47 mmol/L; Potassium ion [13]: 7.64 mmol/L; Sodium ion [13]: 155.8 mmol/L; Total bilirubin [13]: -0.90 µmol/L; Total cholesterol [13]: 2.53 mmol/L; Total protein [13]: 56.9 g/L; Triglyceride [13]: 1.18 mmol/L
3 |  | 2.66 | 1.71 | 3.02 | 10.1 | 15.6 | 21 | 0.52 | < 10 | 13.5 | 105.9 | 26.3 | 31.0 | 254.4 | 14.8 | 124.0 | 2169 | Nc1nc(SSCc2ccc(F)cc2)c2ncn(C3C[C@H](O)[C@@H](CO)O3)c2n1 (stereo partly shown) [B, 6-(p-fluorobenzyldithio)-2′-deoxyguanosine] | > 1000 | D group>A group≈B group≈E group (6-thio-dG group)>C group>F group (PX-12 group)>G group (KB group) | D>B≈A≈6-thio-dG>PX-12>C>KB | IC50 ([1]; read-out: TrxR/Trx-1 IC50): 9.78 µM; Ability to inhibit the growth of transplanted tumor tissue compared with positive controls ([12]; tail vein once every two days for 24 days, equimolar doses): close to that of the positive control 6-thio-dG and stronger than that of the positive control PX-12; Creatinine [13]: 8.67 µmol/L; Glucose [13]: 2.29 mmol/L; Potassium ion [13]: 6.26 mmol/L; Sodium ion [13]: 158.0 mmol/L; Total bilirubin [13]: 0.90 µmol/L; Total cholesterol [13]: 2.76 mmol/L; Total protein [13]: 50.7 g/L; Triglyceride [13]: 0.52 mmol/L
4 | 47.7 | 21.8 |  | 7.37 | 28.7 |  | 35.1 | 3.06 | 10 to 50 | 35.8 | 25.5 | 27.9 | 33.7 | 128.3 | 9.00 | 120.5 | 980.7 | CC(C)(C)SSc1nc(N)nc2c1ncn2C1C[C@H](O)[C@@H](CO)O1 (stereo partly shown) [Compound C, 6-(tert-butyldithio)-2′-deoxyguanosine] | > 1000 | D group>A group≈B group≈E group (6-thio-dG group)>C group>F group (PX-12 group)>G group (KB group) | D>B≈A≈6-thio-dG>PX-12>C>KB | Creatinine [13]: 6.67 µmol/L; Glucose [13]: 2.99 mmol/L; Potassium ion [13]: 6.17 mmol/L; Sodium ion [13]: 159.0 mmol/L; Total bilirubin [13]: 0.80 µmol/L; Total cholesterol [13]: 2.65 mmol/L; Total protein [13]: 51.6 g/L; Triglyceride [13]: 1.15 mmol/L
